ChEMBL document CHEMBL1201862, “PubChem BioAssay data set” (2004)
Calls of active or inactive are those of the source.

Assays:
Insulin-degrading enzyme [1] = target: T1, Insulin-degrading enzyme (Homo sapiens, UniProt P14735); test: activators of endogenous IDE in HEK cells, dose response, cell-based, fluorescence polarization (AID 588439); type: functional
T1 sequence (P14735 whole entry): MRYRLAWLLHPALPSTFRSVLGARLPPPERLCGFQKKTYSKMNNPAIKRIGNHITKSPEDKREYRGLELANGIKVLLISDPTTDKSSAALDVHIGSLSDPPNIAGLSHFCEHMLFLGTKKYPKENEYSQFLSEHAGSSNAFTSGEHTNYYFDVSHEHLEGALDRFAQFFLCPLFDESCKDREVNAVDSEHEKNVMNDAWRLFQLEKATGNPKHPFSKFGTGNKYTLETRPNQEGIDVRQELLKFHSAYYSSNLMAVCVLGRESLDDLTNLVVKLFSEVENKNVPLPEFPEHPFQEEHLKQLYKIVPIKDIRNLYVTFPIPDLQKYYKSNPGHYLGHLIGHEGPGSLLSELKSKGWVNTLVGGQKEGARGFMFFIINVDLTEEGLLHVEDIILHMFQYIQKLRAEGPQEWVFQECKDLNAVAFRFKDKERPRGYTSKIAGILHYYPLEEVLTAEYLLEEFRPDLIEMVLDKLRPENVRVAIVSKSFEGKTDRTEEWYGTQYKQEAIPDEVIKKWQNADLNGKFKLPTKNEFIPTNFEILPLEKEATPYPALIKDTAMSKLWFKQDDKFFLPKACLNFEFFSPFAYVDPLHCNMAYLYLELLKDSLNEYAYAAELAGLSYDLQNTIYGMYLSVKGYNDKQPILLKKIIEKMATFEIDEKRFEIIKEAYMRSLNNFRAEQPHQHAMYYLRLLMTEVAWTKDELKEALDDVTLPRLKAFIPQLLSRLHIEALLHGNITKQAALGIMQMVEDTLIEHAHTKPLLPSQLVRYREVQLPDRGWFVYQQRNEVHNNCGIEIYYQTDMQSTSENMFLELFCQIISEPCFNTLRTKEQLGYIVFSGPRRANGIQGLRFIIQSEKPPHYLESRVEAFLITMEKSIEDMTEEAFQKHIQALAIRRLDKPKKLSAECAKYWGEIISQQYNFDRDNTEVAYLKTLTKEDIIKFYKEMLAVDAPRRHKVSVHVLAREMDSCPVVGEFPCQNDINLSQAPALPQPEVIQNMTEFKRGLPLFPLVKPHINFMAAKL

HEK293 [2] = test: HEK cell cytotoxicity by LDH release, dose response, cytotoxicity control for IDE activator project, fluorescence, HEK cells (AID 588440); type: functional, cell-based; conditions: Homo sapiens;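 note: cytotoxicity by LDH release measuring loss of membrane integrity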
HEK293 [3] = test: optical interference in Abeta FP readout, dose response, artefact control for IDE activator project, biochemical, fluorescence polarization (AID 588442); type: functional, cell-based; conditions: Homo sapiens
Insulin-degrading enzyme [4] = target: T1, Insulin-degrading enzyme; test: activators of recombinant IDE enzyme, dose response, counter-screen for IDE activator project, biochemical, fluorescence polarization (AID 588681)
Melanocortin receptor 4 = Melanocortin receptor 4 (Homo sapiens, UniProt P32245); type: functional, cell-based;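 note: Cell-based assay with luminescence read-out, confirmatory dose-response testing for agonist activity of biased ligands at MC4R; human U2OS cells with tagged receptor and beta-arrestin; potency of agonists that increase receptor coupling to beta-arrestin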
[5] = inhibitors of clade B AD8 Env fusion, dose response, cell-based, cherry-pick (AID 652062); type: functional;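 note: luciferase signal from cell-cell fusion driven by HIV-1 clade B AD8 Env; potency is for inhibitors of fusion seen as a drop in luminescence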
[6] = off-target signal loss in HeLa-CEM21 co-culture – HeLa F-luc CTL cells, cherry-picked, counter-screen for HIV-1 Env fusion inhibitor project, dose response (AID 652040); type: functional, cell-based;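 note: potency for signal decrease marking cytotoxic or nonspecific inhibition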
[7] = ZM109 Env clade C HIV-1 fusion inhibitors, dose response, HeLa effector, CEM target cells, luciferase, cherry-pick (AID 652058); type: functional, cell-based
[8] = inhibitors of HIV Env-driven cell fusion, dose response, cherry-pick (AID 652057); type: functional, cell-based
[9] = target: ATP-dependent molecular chaperone HSP82 (Candida albicans (strain WO-1) (Yeast), UniProt C4YTQ8); test: loss of DOC-induced GRE-beta-galactosidase reporter signal, dose response, Hsp90 inhibitor project, S. cerevisiae, luminescence (AID 2400); type: functional, cell-based;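 note: beta-galactosidase luminescence from glucocorticoid response element reporter as proxy for Hsp90 function; inhibitor potency where signal loss means Hsp90 inhibition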
[10] = C. albicans growth with fluconazole, confirmation, fluorescence, retest (AID 2467); type: functional, cell-based
[11] = NIH-3T3 fibroblast cytotoxicity, dose response, cytotoxicity control, cell-based, fluorescence, Alamar Blue, secondary assay (AID 2327); type: functional;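 note: NIH-3T3 mouse fibroblasts cultured with fluconazole at 8 µg/mL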
[12] = target: T2, Serine/threonine-protein phosphatase (Candida dubliniensis (strain CD36 / CBS 7987 / NCPF 3949 / NRRLY-17841) (Yeast), UniProt B9W6M3); test: calcineurin pathway inhibitors in yeast reporter, dose response, S. cerevisiae, CDRE-lacZ, luminescence, secondary (AID 2388); type: functional, cell-based;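 note: yeast reporter cells carrying a calcineurin-responsive lacZ construct stimulated with calcium chloride; luminescent beta-galactosidase reporter signal in whole cells rather than isolated phosphatase activity; potency for inhibition where a drop in reporter signal means calcineurin blockade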
T2 sequence (B9W6M3 whole entry): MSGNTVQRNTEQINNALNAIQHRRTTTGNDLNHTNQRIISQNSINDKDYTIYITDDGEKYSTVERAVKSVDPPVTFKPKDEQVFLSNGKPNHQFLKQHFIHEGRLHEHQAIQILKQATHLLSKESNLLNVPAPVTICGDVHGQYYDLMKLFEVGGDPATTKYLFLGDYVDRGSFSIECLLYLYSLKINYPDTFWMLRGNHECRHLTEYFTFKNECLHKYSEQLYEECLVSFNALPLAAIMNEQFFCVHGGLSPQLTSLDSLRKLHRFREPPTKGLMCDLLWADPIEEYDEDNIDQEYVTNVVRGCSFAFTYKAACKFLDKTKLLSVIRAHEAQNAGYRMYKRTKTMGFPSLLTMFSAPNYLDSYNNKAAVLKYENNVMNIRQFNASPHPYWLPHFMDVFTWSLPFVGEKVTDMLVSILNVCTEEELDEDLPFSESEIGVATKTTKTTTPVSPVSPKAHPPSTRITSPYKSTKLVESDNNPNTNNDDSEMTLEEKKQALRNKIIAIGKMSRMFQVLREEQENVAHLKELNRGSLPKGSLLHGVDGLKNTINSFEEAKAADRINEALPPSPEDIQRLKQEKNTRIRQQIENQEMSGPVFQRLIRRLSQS

[13] = control 3'UTR Renilla luciferase suppression, dose response, counter-screen for Shn3 inhibitor project, cell-based, Clone20-Shn3RL, cherry-picked (AID 624133); type: functional
[14] = Shn3 3'UTR reporter inhibitors, dose response, cell-based, Clone20 osteoblasts, firefly luciferase, cherry-picked (AID 624132); type: functional;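 note: firefly luciferase luminescence from reporter carrying the Shn3 3'UTR in osteoblasts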
[15] = HepG2 cell cytotoxicity, dose response, cytotoxicity control for Shn3 inhibitor project, CellTiter-Glo, cherry-picked (AID 624134); type: functional, cell-based

Sequence of Melanocortin receptor 4 (P32245 whole entry, the tested form may be a part): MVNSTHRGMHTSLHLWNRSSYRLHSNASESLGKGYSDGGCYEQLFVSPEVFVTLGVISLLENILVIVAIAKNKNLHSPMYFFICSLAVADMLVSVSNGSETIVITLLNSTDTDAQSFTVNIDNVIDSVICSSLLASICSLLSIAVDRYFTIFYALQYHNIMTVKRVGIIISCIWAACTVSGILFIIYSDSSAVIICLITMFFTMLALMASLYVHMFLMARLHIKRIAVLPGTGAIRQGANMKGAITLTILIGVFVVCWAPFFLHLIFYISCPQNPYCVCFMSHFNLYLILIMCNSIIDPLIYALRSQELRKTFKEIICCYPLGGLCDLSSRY
Sequence of ATP-dependent molecular chaperone HSP82 (C4YTQ8 whole entry): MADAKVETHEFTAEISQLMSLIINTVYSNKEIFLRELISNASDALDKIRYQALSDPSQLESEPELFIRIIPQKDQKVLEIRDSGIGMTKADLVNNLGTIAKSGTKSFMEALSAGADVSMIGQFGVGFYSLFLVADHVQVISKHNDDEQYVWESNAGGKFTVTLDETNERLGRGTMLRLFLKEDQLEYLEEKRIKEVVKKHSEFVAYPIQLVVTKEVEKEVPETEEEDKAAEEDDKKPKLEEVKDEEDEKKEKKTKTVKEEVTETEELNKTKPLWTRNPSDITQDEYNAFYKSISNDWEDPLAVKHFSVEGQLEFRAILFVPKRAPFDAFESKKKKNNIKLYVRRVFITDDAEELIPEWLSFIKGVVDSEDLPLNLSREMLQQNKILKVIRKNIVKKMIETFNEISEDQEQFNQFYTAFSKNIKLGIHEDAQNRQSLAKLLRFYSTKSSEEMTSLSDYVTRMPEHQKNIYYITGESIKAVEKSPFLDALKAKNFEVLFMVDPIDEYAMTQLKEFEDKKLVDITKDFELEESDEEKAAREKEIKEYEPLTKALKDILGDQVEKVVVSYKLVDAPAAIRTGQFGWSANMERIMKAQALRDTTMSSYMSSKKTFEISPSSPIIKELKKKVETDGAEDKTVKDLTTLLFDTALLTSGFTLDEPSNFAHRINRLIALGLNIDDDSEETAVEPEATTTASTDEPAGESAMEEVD

**Q.** Which EC50 (Insulin-degrading enzyme [1]) does the source give for `O=C(NS(=O)(=O)Nc1ccccc1)C1=C(N2CCCC2)COC1=O` here?
**A.** Its EC50 is > 54.7 µM (inactive).

**Q.** And the IC50 (HEK293 [2])?
**A.** The IC50 was > 89.2 µM (inactive).

**Q.** What about the EC50 (HEK293 [3]) of the same molecule?
**A.** Its EC50 is > 55.9 µM (inactive).

**Q.** What about the EC50 (Insulin-degrading enzyme [4]) of the same molecule?
**A.** The EC50 was > 54.7 µM (inactive).

**Q.** With `CCOC(=O)C(/C=N/c1ccc2c(c1)nnn2-c1ccc(Cl)cc1)=C(\O)OCC` as the molecule, how does the EC50 (Melanocortin receptor 4) read?
**A.** Its EC50 is > 89.2 µM (inactive).

**Q.** For `O=C(CCN1C(=O)/C(=C/C=C/c2ccccc2)SC1=S)Nc1cccnc1`, which EC50 (Melanocortin receptor 4) is on record?
**A.** The EC50 was > 89.2 µM (inactive).

**Q.** What does the source list for `Sc1ncc(-c2ccccc2)n1-c1cccc(Cl)c1`?
**A.** AC50 [5]: 21.3 µM (active); AC50 [6]: 17.1 µM (active); AC50 [7]: 16.1 µM (active); AC50 [8]: 11.7 µM (active)

**Q.** Which results are given for `CCNc1nc(NC(C)C)nc(NC(C)(C)C)n1`?
**A.** EC50 [9]: > 160 µM (inactive); EC50 [10]: 0.11 µM (active); EC50 [11]: > 150 µM (inconclusive); EC50 [12]: > 180 µM (inactive)

**Q.** For `CC1CN(S(=O)(=O)c2ccc(C(=O)Nc3nncs3)cc2)CC(C)O1` (stereo unspecified), which EC50 (Insulin-degrading enzyme [1]) is on record?
**A.** The EC50 was > 54.7 µM (inactive).

**Q.** What about the IC50 (HEK293 [2]) of the same molecule?
**A.** Its IC50 is > 89.2 µM (inactive).

**Q.** What about the EC50 (HEK293 [3]) of the same molecule?
**A.** Its EC50 is > 54.7 µM (inactive).

**Q.** What about the EC50 (Insulin-degrading enzyme [4]) of the same molecule?
**A.** Its EC50 is > 54.7 µM (inactive).

**Q.** With `OC[C@@H]1CN(Cc2ccncc2)C[C@H](n2cnc3c(N4CCN(c5ccccc5)CC4)ncnc32)O1` as the molecule, how does the AC50 [13] read?
**A.** Its AC50 is 5.72 µM (active).

**Q.** What about the AC50 [14] of the same molecule?
**A.** Its AC50 is 2.38 µM (active).

**Q.** What about the AC50 [15] of the same molecule?
**A.** The AC50 was 3.81 µM (active).
